Results on 42 molecules are retold here after PubChem BioAssay AID1996.

In brackets after ≈: the same amount, converted by molar mass.

For this series the following is noted: buffer; pH 7.4; 200.0 µM.
With `CCOC(=O)c1c(NCCN(C)C)c2ccccc2[nH]c1=O`, the solubility (kinetic) is > 45.5 µg/mL. Consider `CC(=O)c1c(C)n(-c2ccc(C)cc2)c2ccc(O)cc12`, for which the solubility (kinetic) was < 0.6 µg/mL.

As to `COc1cccc(C(=O)Nc2c(F)cccc2F)c1`, the kinetic solubility is > 39.5 µg/mL. Take `O=C(COC(=O)c1ccc(N2CCCC2=O)cc1)c1ccccc1`: the solubility (kinetic) is 3.7 µg/mL (≈ 11.4 µM).

For `CC1CCN(C(=S)NC(=O)c2ccc(F)cc2)CC1`, the kinetic solubility is > 42.1 µg/mL. `O=C(NCCc1ccc(Cl)cc1Cl)c1ccc2nc[nH]c2c1`: the kinetic solubility stood at 33.2 µg/mL (≈ 99.3 µM). The value for `CC(C)CC(=O)N1CC(=O)Nc2ccc(F)cc2C1c1ccccc1` (configuration not stated) was > 51.1 µg/mL; that for `OC(CNC1Cc2ccccc2C1)COc1ccc(Cl)cc1` (configuration not stated) was > 47.7 µg/mL; that for `COc1ccccc1NC(=O)CSc1nc(SC)ns1` was 32.8 µg/mL (≈ 100 µM). The value for `O=C(C1CCN(S(=O)(=O)c2ccccc2)CC1)N1CCCCC1` was 50.4 µg/mL (≈ 150 µM).

Take `O=C(Nc1ccc(Cl)cn1)C1CC1`: the solubility (kinetic) was > 29.5 µg/mL. `CCOC(=O)C1CCCN(Cc2nc(CC3CC3)no2)C1` (configuration not stated) had a solubility (kinetic) of 40 µg/mL (≈ 136 µM).

In the case of `CC(=O)OCC[N+](C)(C)C.[O-][Cl+3]([O-])([O-])[O-]`, the solubility (kinetic) was > 36.8 µg/mL. The result for `Cc1ccc(N(CC(=O)NCC2CCCO2)S(=O)(=O)c2ccc(Cl)cc2)cc1C` (configuration not stated) reads 40.2 µg/mL (≈ 92 µM); that for `O=C(COC(=O)Cc1ccc(Br)cc1)NC1CCCC1`, > 51 µg/mL; that for `COCC1CCN(Cc2nc(COc3ccccc3)no2)C1` (configuration not stated), 37.2 µg/mL (≈ 123 µM).

Turning to `O=C(COc1ccccc1F)NC12CC3CC(CC(C3)C1)C2`, the kinetic solubility is 6.6 µg/mL (≈ 21.8 µM). Take `O=C(NC1CC1)c1cc2ccccc2o1`: the solubility (kinetic) was > 30.2 µg/mL. The result for `Cc1cnc(NC(=O)c2ccc(-c3ccc([N+](=O)[O-])cc3)o2)s1` reads 1.9 µg/mL (≈ 5.77 µM). The molecule `Cc1cc(C)c2c(N)c(C(=O)Nc3ccc(C)c(C)c3)sc2n1` registered a kinetic solubility of 1.1 µg/mL (≈ 3.38 µM). This solubility kinetic is about 1.7-fold lower than that of the molecule before. The value for `Cc1ccccc1N1C(=O)Cc2ccccc2C1=O` was 35.4 µg/mL (≈ 141 µM); that for `CCn1cc(CCC(=O)O)c(C)n1` was > 27.3 µg/mL; that for `Cc1nc2ccc(NS(=O)(=O)c3ccc(F)cc3)cc2s1` was 44.3 µg/mL (≈ 137 µM). In the case of `Cc1ccc(-c2cc3ccccc3nc2N)cc1`, the kinetic solubility was found to be 4 µg/mL (≈ 17.1 µM).

On to `Cc1cccn2c(=O)c(C=O)c(Cl)nc12`, for which the solubility (kinetic) was > 33.4 µg/mL.

`O=C(CSc1ccccn1)Nc1ccc(F)c([N+](=O)[O-])c1` returned a solubility (kinetic) of 43.5 µg/mL (≈ 142 µM).

Regarding `CCCCNC(=O)N(C)c1nc2ccccc2s1`, the solubility (kinetic) was determined as 28.8 µg/mL (≈ 109 µM). Against the preceding molecule, the solubility kinetic is about 1.5-fold lower.

Take `O=C(Nc1ccccc1)c1ccc(NC(=O)c2cccs2)cc1`: the kinetic solubility is < 0.3 µg/mL. The result for `O=C(NC(=S)NCc1ccccc1)c1ccc(Br)cc1` reads < 0.4 µg/mL; that for `O=C1COc2ccc(C(=O)COC(=O)c3ccccn3)cc2N1`, 16.9 µg/mL (≈ 54.1 µM).

Turning to `O=C1CCCCCCCN1Cc1ccccc1`, the solubility (kinetic) was > 34.7 µg/mL. For the molecule `O=C(CNC(=O)c1cccnc1)N/N=C/c1ccc(O)cc1O`, the kinetic solubility is > 47.1 µg/mL.

Consider `CC1CCCCN1S(=O)(=O)c1csc(C(N)=O)c1` (configuration not stated), for which the solubility (kinetic) was > 43.3 µg/mL. The value for `CCCC(=O)Nc1cc(S(=O)(=O)N2CCOCC2)ccc1N1CCCCC1` was > 59.3 µg/mL. For the molecule `COc1ccc(Cl)cc1C(=O)NCCN1CCOCC1`, the solubility (kinetic) is > 44.8 µg/mL.

On to `OC(CN1CCOCC1)Cn1cnc2ccccc21` (configuration not stated), for which the kinetic solubility is > 39.2 µg/mL.

`CCC(CC)C(=O)Nc1cccc(C(=O)NC(C)(C)C)c1`: the solubility (kinetic) was > 43.6 µg/mL. The result for `O=C(Nc1ccccc1O)c1ccc([N+](=O)[O-])cc1` reads 24.1 µg/mL (≈ 93.3 µM).

`Cc1ccc(S(=O)(=O)N2CCOCC2)cc1NC(=O)COC(=O)c1ccc(Cl)s1` returned a solubility (kinetic) of 3 µg/mL (≈ 6.54 µM). The value for `Cn1nccc1C(=O)OCC(=O)Nc1ccc(S(N)(=O)=O)cc1` was > 50.8 µg/mL; that for `C=CCN(CC=C)C(=S)Nc1cc(Cl)ccc1OC` was > 44.5 µg/mL. As for `CC(OC(=O)CCc1nc2ccccc2c(=O)[nH]1)C(=O)Nc1cccc(C(F)(F)F)c1` (configuration not stated), the kinetic solubility was > 65 µg/mL.
